Laboratory results: the supplement of paper PMC7017272
± gives the standard deviation of the averaged measurements.

Key:
Details in all cases: treatment time: 3 days
UT-SCC-24A [1] = assay: drug sensitivity score (DSS); higher = more sensitive
Protocol: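 HNSCC cell lines (500 cells/well, 384-well) were cultured on plastic, on top of (2D) or embedded (3D) in Matrigel or human leiomyoma matrix Myogel (500 ug/mL; Myogel 3D mixed with rat collagen I). Cells were treated for 3 days with 5 ten-fold concentrations of each drug, and viability was read by CellTiter-Glo. Suffixes _1/_2/_3 on drug names are replicates.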

UT-SCC-14 [2] = assay: maximal % inhibition of viability relative to DMSO; higher = stronger effect
Protocol: (§1)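 HNSCC cell lines (500 cells/well, 384-well) were cultured on plastic, on top of (2D) or embedded (3D) in Matrigel or human leiomyoma matrix Myogel (500 ug/mL; Myogel 3D mixed with rat collagen I). Cells were treated for 3 days with 5 ten-fold concentrations of each drug, and viability was read by CellTiter-Glo. Viability was normalised to DMSO and benzethonium chloride controls and fitted with the FIMM DSRT pipeline to give IC50 (nM), maximal % inhibition and DSS. Suffixes _1/_2/_3 are replicates. Only inhibition-mode (IC50) fits are kept.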

UT-SCC-42B [3] = assay: as above
Protocol: as §1

UT-SCC-81 [4] = assay: as above
Protocol: as §1

UT-SCC-24A [5] = assay: as above
Protocol: (§2)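 HNSCC cell lines (500 cells/well, 384-well) were cultured on plastic, on top of (2D) or embedded (3D) in Matrigel or human leiomyoma matrix Myogel (500 ug/mL; Myogel 3D mixed with rat collagen I). Cells were treated for 3 days with 5 ten-fold concentrations of each drug, and viability was read by CellTiter-Glo. Viability was normalised to DMSO (0% inhibition) and 100 uM benzethonium chloride (100% inhibition) controls and fitted with the FIMM DSRT pipeline to give IC50 (nM), maximal % inhibition and the drug sensitivity score (DSS). Suffixes _1/_2/_3 on drug names are replicates.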

UT-SCC-106A = assay: drug sensitivity score (DSS); higher = more sensitive; extreme values may be limits of the assay
Procedure, shortened: (§3)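 HPV-negative HNSCC cell lines were plated at 500 cells/well in 384-well plates, either on plastic, on wells coated with Matrigel or Myogel (500 µg/mL), or embedded in Matrigel or Myogel plus rat collagen I. Each compound was tested at five 10-fold concentrations over 3 days. Viability was measured by CellTiter-Glo 2.0 luminescence, and IC50, maximal inhibition and drug sensitivity score came from percent-inhibition dose–response curves fitted in the FIMM pipeline after normalisation to vehicle (0.1% DMSO) and cell-killing control wells.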

UT-SCC-14 [6] = assay: as above
Procedure, shortened: as §3

UT-SCC-24B = assay: as above
Procedure, shortened: as §3

UT-SCC-28 = assay: as above
Procedure, shortened: as §3

UT-SCC-40 = assay: as above
Procedure, shortened: as §3

UT-SCC-42A = assay: as above
Procedure, shortened: as §3

UT-SCC-42B [7] = assay: as above
Procedure, shortened: as §3

UT-SCC-44 = assay: as above
Procedure, shortened: as §3

UT-SCC-73 = assay: as above
Procedure, shortened: as §3

UT-SCC-81 [8] = assay: as above
Procedure, shortened: as §3

UT-SCC-8 = assay: as above
Procedure, shortened: as §3

UT-SCC-24A [9] = assay: relative IC50 (midpoint of the fitted curve; maximal inhibition may be below 50%); higher = less potent
Protocol: as §2

[10] = culture condition: embedded in Matrigel
[11] = culture condition: embedded in Myogel + collagen I
[12] = culture condition: on top of Matrigel
[13] = culture condition: on top of Myogel
[14] = culture condition: plastic 2D (no matrix)

In the case of `C=CC(=O)Nc1cc2c(Nc3ccc(F)c(Cl)c3)ncnc2cc1OCCCN1CCOCC1` [Canertinib], the drug sensitivity score (UT-SCC-24A [1]; [10]) is reported as 27.8 ± 2 DSS, the drug sensitivity score (UT-SCC-24A [1]; [11]) is reported as 11 ± 3.6 DSS and the drug sensitivity score (UT-SCC-24A [1]; [12]) is reported as 23.5 ± 0.87 DSS. The drug sensitivity score (UT-SCC-24A [1]; [13]) was 8.7 ± 0.2 DSS, the drug sensitivity score (UT-SCC-24A [1]; [14]) was 23.5 ± 1.5 DSS and the “maximal % inhibition of viability” value (UT-SCC-14 [2]; [10]) was 99.23 ± 0.75%. The “maximal % inhibition of viability” value (UT-SCC-14 [2]; [11]) was 98.8 ± 1.1%, the “maximal % inhibition of viability” value (UT-SCC-14 [2]; [12]) was 99.7 ± 0.27% and the “maximal % inhibition of viability” value (UT-SCC-14 [2]; [13]) was 98.7 ± 1.7%. The “maximal % inhibition of viability” value (UT-SCC-14 [2]; [14]) was 98.5 ± 1.4%, the “maximal % inhibition of viability” value (UT-SCC-42B [3]; [10]) was 99.5 ± 0.36% and the “maximal % inhibition of viability” value (UT-SCC-42B [3]; [12]) was 99.87 ± 0.23%. The “maximal % inhibition of viability” value (UT-SCC-42B [3]; [13]) was 99.77 ± 0.4%, the “maximal % inhibition of viability” value (UT-SCC-42B [3]; [14]) was 99.17 ± 0.74% and the “maximal % inhibition of viability” value (UT-SCC-81 [4]; [10]) was 99.63 ± 0.4%. The “maximal % inhibition of viability” value (UT-SCC-81 [4]; [11]) was 99.77 ± 0.32%, the “maximal % inhibition of viability” value (UT-SCC-81 [4]; [12]) was 99.27 ± 0.64% and the “maximal % inhibition of viability” value (UT-SCC-81 [4]; [13]) was 99.13 ± 0.75%. For the same compound, the “maximal % inhibition of viability” value (UT-SCC-81 [4]; [14]) was 99.77 ± 0.4%, the “maximal % inhibition of viability” value (UT-SCC-24A [5]; [10]) was 99.57 ± 0.38% and the “maximal % inhibition of viability” value (UT-SCC-24A [5]; [11]) was 99.17 ± 0.74%. The “maximal % inhibition of viability” value (UT-SCC-24A [5]; [12]) was 99.7 ± 0.36%, the “maximal % inhibition of viability” value (UT-SCC-24A [5]; [13]) was 99 ± 0.87% and the “maximal % inhibition of viability” value (UT-SCC-24A [5]; [14]) was 99.5 ± 0.62%. For the same compound, the drug sensitivity score (UT-SCC-106A; [10]) was 15.8 ± 1.5 DSS, the drug sensitivity score (UT-SCC-106A; [11]) was 5.8 ± 0.1 DSS and the drug sensitivity score (UT-SCC-106A; [12]) was 19.2 ± 1.5 DSS. It also gave a drug sensitivity score (UT-SCC-106A; [13]) of 7.13 ± 0.71 DSS, a drug sensitivity score (UT-SCC-106A; [14]) of 21 ± 0.93 DSS and a drug sensitivity score (UT-SCC-14 [6]; [10]) of 27 ± 0.3 DSS. The drug sensitivity score (UT-SCC-14 [6]; [11]) was 11.2 ± 2.8 DSS, the drug sensitivity score (UT-SCC-14 [6]; [12]) was 26.6 ± 0.94 DSS and the drug sensitivity score (UT-SCC-14 [6]; [13]) was 16.5 ± 2.1 DSS. The drug sensitivity score (UT-SCC-14 [6]; [14]) was 25.6 ± 1.9 DSS, the drug sensitivity score (UT-SCC-24B; [10]) was 17.8 ± 0.7 DSS and the drug sensitivity score (UT-SCC-24B; [11]) was 9.13 ± 0.25 DSS. It also gave a drug sensitivity score (UT-SCC-24B; [12]) of 18.1 ± 0.57 DSS, a drug sensitivity score (UT-SCC-24B; [13]) of 9.17 ± 0.12 DSS and a drug sensitivity score (UT-SCC-24B; [14]) of 26.2 ± 0.55 DSS. For the same compound, the drug sensitivity score (UT-SCC-28; [10]) was 4.2 ± 0.5 DSS, the drug sensitivity score (UT-SCC-28; [11]) was 8.6 ± 0.27 DSS and the drug sensitivity score (UT-SCC-28; [12]) was 7.8 ± 0.6 DSS. For the same compound, the drug sensitivity score (UT-SCC-28; [14]) was 7 ± 0.56 DSS, the drug sensitivity score (UT-SCC-40; [10]) was 27.4 ± 1.1 DSS and the drug sensitivity score (UT-SCC-40; [11]) was 10.4 ± 1.9 DSS. It also gave a drug sensitivity score (UT-SCC-40; [12]) of 26.2 ± 0.62 DSS, a drug sensitivity score (UT-SCC-40; [13]) of 10 ± 1.6 DSS and a drug sensitivity score (UT-SCC-40; [14]) of 18.6 ± 0.5 DSS. It also gave a drug sensitivity score (UT-SCC-42A; [10]) of 17.1 ± 0.32 DSS, a drug sensitivity score (UT-SCC-42A; [11]) of 7.67 ± 1.3 DSS and a drug sensitivity score (UT-SCC-42A; [12]) of 18.4 ± 1.2 DSS. For the same compound, the drug sensitivity score (UT-SCC-42A; [13]) was 9.8 ± 0.98 DSS, the drug sensitivity score (UT-SCC-42A; [14]) was 17.9 ± 0.98 DSS and the drug sensitivity score (UT-SCC-42B [7]; [10]) was 23.7 ± 2.4 DSS. It also gave a drug sensitivity score (UT-SCC-42B [7]; [12]) of 16.9 ± 2 DSS, a drug sensitivity score (UT-SCC-42B [7]; [13]) of 6.83 ± 0.35 DSS and a drug sensitivity score (UT-SCC-42B [7]; [14]) of 12 ± 1.2 DSS. It also gave a drug sensitivity score (UT-SCC-44; [10]) of 4 ± 0.3 DSS, a drug sensitivity score (UT-SCC-44; [11]) of 6.57 ± 1.5 DSS and a drug sensitivity score (UT-SCC-44; [12]) of 8.2 ± 0.27 DSS. The drug sensitivity score (UT-SCC-44; [13]) was 7.47 ± 2.1 DSS, the drug sensitivity score (UT-SCC-44; [14]) was 7.63 ± 1.1 DSS and the drug sensitivity score (UT-SCC-73; [10]) was 7.6 ± 1.1 DSS. It also gave a drug sensitivity score (UT-SCC-73; [11]) of 7.73 ± 2.5 DSS, a drug sensitivity score (UT-SCC-73; [12]) of 8.83 ± 0.23 DSS and a drug sensitivity score (UT-SCC-73; [13]) of 8.53 ± 0.75 DSS. For the same compound, the drug sensitivity score (UT-SCC-73; [14]) was 8.87 ± 0.15 DSS, the drug sensitivity score (UT-SCC-81 [8]; [10]) was 29.4 ± 1.3 DSS and the drug sensitivity score (UT-SCC-81 [8]; [11]) was 9.43 ± 3.1 DSS. For the same compound, the drug sensitivity score (UT-SCC-81 [8]; [12]) was 27.53 ± 0.12 DSS, the drug sensitivity score (UT-SCC-81 [8]; [13]) was 8.9 ± 0.27 DSS and the drug sensitivity score (UT-SCC-81 [8]; [14]) was 26.1 ± 0.51 DSS. It also gave a drug sensitivity score (UT-SCC-8; [10]) of 29.83 ± 0.058 DSS, a drug sensitivity score (UT-SCC-8; [11]) of 4.77 ± 0.81 DSS and a drug sensitivity score (UT-SCC-8; [12]) of 29.7 ± 0.64 DSS. For the same compound, the drug sensitivity score (UT-SCC-8; [13]) was 11.6 ± 2.1 DSS, the drug sensitivity score (UT-SCC-8; [14]) was 29 ± 0.85 DSS and the “relative IC50” value (UT-SCC-24A [9]; [10]) was 38.1 nM. The “relative IC50” value (UT-SCC-24A [9]; [11]) was 1010 nM, the “relative IC50” value (UT-SCC-24A [9]; [12]) was 84.8 nM and the “relative IC50” value (UT-SCC-24A [9]; [13]) was 1630 nM. For the same compound, the “relative IC50” value (UT-SCC-24A [9]; [14]) was 83.1 nM.
